Test results from patent publication US20100203110A1, “Therapeutics for Cancer Using 3-Bromopyruvate and Other Selective Inhibitors of ATP Production” (The Johns Hopkins University, priority 2006, published 2010).

Tests used:
[1] = system: mitochondrial hexokinase of the VX2 tumor; assay: Hexokinase activity assay coupled to glucose-6-phosphate dehydrogenase; type: biochemical, rabbit; details: VX2 tumor mitochondria, cell free
Protocol: The freshly isolated liver or VX2 tumor tissues (15-20 g wet weight) was rinsed in 3 volumes of H-medium (210 mM D-mannitol, 70 mM sucrose, 2 mM Hepes, and 0.05% bovine albumin, pH 7.4) at 4° C. and minced with a razor blade as finely as possible. A 30% (V/V) suspension was made using ice-cold H-medium in a Potter-Elvehjem glass homogenizer (55 ml capacity), and homogenization was achieved by applying 4 complete up and down strokes through the suspension with a rotating (˜400 rpm), serrated, teflon pestle attached to a motor. To remove cell debris and nuclei, the resultant homogenate was diluted to twice the initial volume and centrifuged at 630×g for 8 minutes at 4° C. in a Sorvall RC-2B centrifuge using a GSA rotor. The supernatant was removed and then centrifuged at 6,800 g for 15 min under the same conditions. The resultant supernatant was saved and referred to here as the cytosolic faction. The pellet was resuspended in the initial volume of H-medium and centrifuged twice at 9,800×g for 15 min at 4° C. The washed pellet represents the mitochondrial fraction.
The assay coupled the glucose-6-phosphate formed in the hexokinase reaction to the glucose-6-phosphate dehydrogenase reaction. Here, NADP+, oxidizes glucose-6-phosphate to a g-lactone while becoming reduced to NADPH, thus allowing the formation of the latter to be monitored spectrophotometrically at 340 nm. […]

[2] = Biodistribution of 14C radiolabeled 3-bromopyruvate in rabbit Vx-2 model; type: in vivo
Protocol: In order to properly design a treatment protocol that would ensure survival of the animal with the least amount of toxicity, the biodistribution of 3-bromopyruvate given either IV or intraarterially over a period of 24 hours was investigated. For this series of experiments, radioactive 3-bromopyruvate using ^14C was synthesized. The use of ^14C labeled 3-bromopyruvate would allow monitoring in each tissue.
36 rabbits were divided into two groups of 18 animals each. Group 1 was treated intraarterially and group 2 received intravenous injection of 3-bromopyruvate. Each group was further subdivided into six groups of three rabbits each, corresponding to various time points of sacrifice (0, 30, 60, 120 and 240 minutes and 24 hours). All rabbits were fasted for 24 hours prior to treatment. The rabbits treated intraarterially received a one-hour infusion of 25 cc of 1.75 mM 3-bromopyruvate in PBS and those treated intravenously received a one-hour infusion of 25 cc of 20 mM 3-bromopyruvate in PBS. The difference in doses of 3-bromopyruvate between intraarterial and intravenous administration is based on the optimal dose for each method of administration. Radiolabeled 3-bromopyruvate (200 μCi, 100 μL) was added to each 25 ml treatment solution. One hour before sacrifice, 1 ml of 18FDG (1 mCi) was injected via an ear vein to monitor glucose uptake.
The purpose of the injection of FDG was to correlate the effects of 3-bromopyruvate with glucose uptake. […] This finding, also present when the drug was given intraarterially, was more pronounced and the accumulation of 3-bromopyruvate is prolonged compared to IV administration.

[3] = system: VX2; assay: Cell viability, VX2; type: cell-based, rabbit; details: 1 mM for 3 hour
Protocol: Caspase-3 activity and reduced cell viability was also measured in cell lines (HepG2, THLE-2, and VX2 cell lines) following 3-bromopyruvate treatment (1 mM for 3 hour) (FIG. 6A). Caspase-3 activity increased in each cell line following treatment and cell viability decreased following treatment. An increase in caspase-3 activity indicated the mechanism of cell death is apoptotic. FIGS. 6 B and C show cell viability is reduced in each cell line with increasing 3-bromopyruvate concentration after 1 and 3 hours of treatment.

[4] = IA one-hour infusion 25 cc 1.75 mM

O=C(O)C(=O)CBr [3-bromopyruvate]
concentration for complete inhibition of hexokinase activity [1]: 5 mM
levels in the brain ([2]; 14C label): virtually undetectable
accumulation in other organs including brain, lungs and heart [2, 4]: no accumulation
retention in the tumor [2, 4]: stayed within the tumor up to 24 hours
clearance route ([2]; IA, lesser extent through the kidneys): mostly through the liver
uptake by organs (heart, lung and brain) ([2]; IV one-hour infusion 25 cc 20 mM): no significant uptake
time of maximal tumor uptake ([2]; after IV injection): 4 h
blood brain barrier penetration ([2]; rabbit, in vivo): does not cross the blood brain barrier
inhibition of FDG (glucose) uptake in organs ([2]; rabbit, in vivo): no inhibition
tissue damage at histopathologic analysis ([2]; rabbit, in vivo): none of the organs showed any associated tissue damage
cell viability [3]: decreased
